# Test results: patent publication US4593043A, “Mercapto acyl-carnitines and pharmaceutical compositions containing same” (Sigma-Tau Industrie Farmaceutiche Riunite S.p.A., priority 1981, dated 1986)
# Counter-ions that a name gives are not always drawn.
# Columns and labels:
# [1] = Acute toxicity in the mouse, Weil method; conditions: in vivo, ip
# Text: The acute toxicity of the compounds of general formula (I) has been studied in the mouse with the Weil method (Weil C. S., Biometer. J. 8, 249, 1952).
# The LD50 values of some compounds illustrated in Table I, indicate that the compounds are remarkably well tolerated. PG,20
# general formula (I). Weil's method (N = 5, K = 4) Cl = hydro-
# [2] = test system: damage provoked by irradiation in rats; experiment: Protection against X-ray exposure (survival after irradiation); format: in vivo, Albino Wister rats; conditions: 30-40 mg Kg^-1 1 hour before irradiation and 15 mg Kg^-1 per day in the subsequent 20 days
# Method: The effect of the compounds of formula (I) towards the damages provoked by X-ray exposure was studied.
# The experiment animals, Albino Wister rats, treated with the compounds under examination (30-40 mg Kg^-1 1 hour before irradiation and 15 mg Kg^-1 per day in the subsequent 20 days) were irradiated and checked over a time period to detect the onset of toxic effects and the time of survival with respect to the control group. […]
# [3] = test system: burned cutaneous area of the back; experiment: Cutaneous regeneration from burns; format: in vivo; conditions: rabbits, oral, 20 mg Kg^-1 once a day for seven days; for Percentage of regenerated tissue, 4th day: 4th day from treatment; for Percentage of regenerated tissue, 8th day: 8th day from treatment
# Method: The ability of the compounds of formula (I) to speed up the cutaneous regeneration from burns has been tested in rabbits.
# A 4 cm^2 cutaneous area of the average-top zone of the test animal back was burned.
# The compounds were orally administered in aqueous solution at the dose of 20 mg Kg^-1 once a day for seven days. The area of cutaneous regeneration, i.e. the area of the newly formed tissue was then measured (Table III).
# [4] = test system: bronchial secretion; experiment: Expectorant activity (bronchial secretion), method of Perry et al.; format: in vivo, male rabbits; conditions: rabbits; for Percentage variations of bronchial secretion, 1 hour: 1 hour after administration; for Percentage variations of bronchial secretion, 2 hours: 2 hours after administration; for Percentage variations of bronchial secretion, 4 hours: 4 hours after administration
# Method: The tests were carried out on male rabbits, weighing 2-3 Kg, anesthetized with ethyl urethane, by following the method disclosed by Perry et al. (J. Pharm. Exp. Ther. 73, 65, 1941).
# Each cannula was connected to a feeding device which delivered a steady flow-rate of pre-heated air (36°-38° C.) at constant humidity (80%). At the lower end of each cannula, a graduated cylinder was fitted, wherein the bronchial secretion was collected. All of the animals breathed spontaneously and consequently they self-regulated the air intake suitable for normal respiration. […] Each dose of drug was administered to 5 animals. The control animals (8) were given water only. The amount of secretion was determined after 1, 2 and 4 hours from administration.
# [5] = Mucolytic activity in vitro on human sputum (thromboelastograph, method of Morandini et al.); conditions: for Percentage drop ± s.e. of the tracing versus maximum peak (mucolytic activity index), dilution 1/30: 1 ml of a 10% solution at dilution 1/30; for Percentage drop ± s.e. of the tracing versus maximum peak (mucolytic activity index), dilution 1/60: 1 ml of a 10% solution at dilution 1/60
# Method: The tests were carried out in vitro by using the method disclosed by Morandini et al. (Lotta contro la tubercolosi 47, n. 4, 1977). A thromboelastograph was used to follow the variations induced by the compounds of general formula (I) and acetylcisteine on the rheological properties of human sputum.
# [6] = mice, ep, Weil's method (N = 5, K = 4)
Structure (SMILES),LD50 [1],Percentage of surviving animals [2],"Percentage of surviving animals, day 10 from irradiation [2]","Percentage of surviving animals, day 20 from irradiation [2]","Percentage of regenerated tissue, 4th day [3]","Percentage of regenerated tissue, 8th day [3]","Percentage variations of bronchial secretion, 1 hour ([4]; 15 mg oral)","Percentage variations of bronchial secretion, 2 hours ([4]; 15 mg oral)","Percentage variations of bronchial secretion, 4 hours ([4]; 15 mg oral)","Percentage drop ± s.e. of the tracing versus maximum peak (mucolytic activity index), dilution 1/30 [5]","Percentage drop ± s.e. of the tracing versus maximum peak (mucolytic activity index), dilution 1/60 [5]","Percentage variations of bronchial secretion, 1 hour ([4]; 10 mg oral)","Percentage variations of bronchial secretion, 2 hours ([4]; 10 mg oral)","Percentage variations of bronchial secretion, 4 hours ([4]; 10 mg oral)","LD50 [1, 6]","Percentage variations of bronchial secretion, 1 hour ([4]; 20 mg oral)","Percentage variations of bronchial secretion, 2 hours ([4]; 20 mg oral)","Percentage variations of bronchial secretion, 4 hours ([4]; 20 mg oral)"
CCC(S)C(=O)OC(CC(=O)O)C[N+](C)(C)C (stereo not shown) [2-mercapto butyryl carnitine Cl],294 mg/kg,70%,100%,85%,35%,95%,+0.5%,+0.9%,+2.3%,85.3 ± 4%,38.4 ± 5%,–,–,–,–,–,–,–
CC(S)C(=O)OC(CC(=O)O)C[N+](C)(C)C (stereo not shown) [2-mercapto propionyl carnitine Cl],294 mg/kg,45%,80%,70%,30%,65%,–,–,–,85.4 ± 6%,46.5 ± 6%,+0.1%,+0.2%,+2.0%,–,–,–,–
"C[N+](C)(C)CC(CC(=O)O)OC(=O)CCS (stereo not shown) [3-mercapto propionyl carnitine Cl, 3-mercapto propionyl carnitine hydrochloride]",–,60%,90%,80%,40%,80%,-0.2%,+0.4%,+1.1%,–,–,–,–,–,312 mg/kg,–,–,–
"C[N+](C)(C)CC(CC(=O)O)OC(=O)CCCS (stereo not shown) [4-mercapto butyryl carnitine Cl, 4-mercapto butyryl carnitine hydrochloride]",–,55%,100%,80%,25%,70%,–,–,–,–,–,–,–,–,303 mg/kg,+0.4%,+0.6%,+1.2%
C[N+](C)(C)CC(CC(=O)O)OC(=O)CCCCS (stereo not shown) [5-mercapto valeryl carnitine Cl],281 mg/kg,50%,95%,70%,20%,60%,+0.6%,-0.3%,+1.4%,90.3 ± 6%,48.3 ± 6%,–,–,–,–,–,–,–
"CC(=O)N[C@@H](CS)C(=O)O [Acetylcysteine, reference compound]",–,–,–,–,–,–,–,–,–,75.7 ± 7%,22.3 ± 4%,–,–,–,–,–,–,–
C[N+](C)(C)CC(CC(=O)O)OC(=O)CS (stereo not shown) [mercapto acetyl carnitine Cl],308 mg/kg,30%,85%,45%,35%,70%,–,–,–,78.3 ± 5%,45.2 ± 4%,+0.3%,+0.9%,+2.4%,–,–,–,–
